Results taken from patent publication US20150202192A1, “PHARMACEUTICAL COMPOSITION FOR TREATING GASTRO-OESOPHAGEAL REFLUX DISEASE” (priority 2012, published 2015).

Tests used:
[1] = Clinical study in GERD patients: symptom severity (pyrosis, regurgitation) on Likert scale; type: in vivo, human; settings: n = 10; for medium term arresting pyrosis / medium term arresting regurgitation: oral, 2 times a day for 56 days
[2] = Clinical study in GERD patients: tolerability (diarrhea, flatulence, AE necessitating discontinuation); type: in vivo, human; settings: n = 10
Description: (§1) The study included 100 patients with endoscopically negative GERD form, i.e. men and women aged 19 to 50 years old infected with H. pilori.
All the patients were divided into 10 groups of 10 persons each, of whom 5 groups (I-V) were experimental ones, while 5 groups (VI-X) were control ones.
In the experimental groups patients received orally the claimed dosage forms based on PPI and a prebiotic; Group I—a composition which contained omeprazole and lactulose as active components; Group II—a composition which contained pantoprazole and lactitol as active components; Group III—a composition which contained lansoprazole and inulin as active components; Group IV—a composition which contained rabeprazole and fructooligosaccharides as active components; Group V—a composition which contained esomeprazole and lactulose as active components.
In the control groups the patients received PPI monotherapy orally: Group VI—omeprazole; Group VII—pantoprazole; Group VIII—lansoprazole; Group IX—rabeprazole and Group X—esomeprazole.
(§2) All the patients received treatment on a similar pattern: they received the composition of a proton pump inhibitor and a prebiotic 2 times a day for 56 days.
The patients kept their diaries in which they made daily records of the time when they took drugs, recorded disease symptom severity according to Likert scale, severity of meteorism, defecation frequency, etc.
(§3) Repeated visits were made in 2 and 5 weeks after the treatment start; during the visits treatment efficacy and safety were determined, besides, it was determined if the therapy could be continued. In 56 days (8 weeks) after the therapy start, the patient came to a visit, wherein efficacy and safety of treatment was evaluated and the treatment was terminated. In 11 weeks after the treatment start, the final visit was made which included esophagogastroduodenoscopy with byopsy of the antrum and the gastric corpus for HP detection.

[3] = Clinical study in GERD patients: hydrogen breathing test for bacterial overgrowth syndrome; type: in vivo, human; settings: n = 10
Description: as §1, §2
Before and after treatment course (on Day 56) all the patients were subjected to hydrogen breathing test on the presence of bacterial overgrowth syndrome.

Helicobacter pylori = experiment: Clinical study in GERD patients: biopsy of antrum and gastric corpus for Helicobacter pylori (cytology/histology, urease test); type: in vivo, human; settings: n = 10
Description: as §1, §2
In all patients, before treatment and in 4 weeks (1 month) after completion of the treatment course the biopsy of the antrum and gastric corpus was made for the presence of Helicobacter pylori. For HP diagnostics the following was used:
1. Cytological and histological biopsy of mucosa of the antrum and gastric corpus obtained in gastroscopy.
2. Urease test, in which the mucous membrane biopsy material obtained from the antrum and the gastric corpus were examined for the presence of urease, an enzyme specific for Helicobacter pylori.
as §3

[4] = Clinical study in GERD patients: quality of life by Visual Analog Scale; type: in vivo, human; settings: n = 10
intestinal bacteria = settings: humans, 3 g daily dose; cited from earlier work
[5] = after treatment (oral, 2 times a day for 56 days)
[6] = after treatment, biopsy after completion of the 56-day course

SMILES | Intensity pyrosis on scale Likert [1, 5] [ball] | Intensity regurgitation on scale Likert [1, 5] [ball] | Intensity pyrosis on scale Likert ([1]; before treatment) [ball] | Intensity regurgitation on scale Likert ([1]; before treatment) [ball] | medium term arresting pyrosis [1] [days] | medium term arresting regurgitation [1] [days] | AE, necessitating discontinuation of therapy ([2]; after treatment (56 days)) [%] | Presence diarrhea ([2]; after treatment (56 days)) [%] | Presence flatulence ([2]; after treatment (56 days)) [%] | Presence diarrhea ([2]; before treatment) [%] | Presence flatulence ([2]; before treatment) [%] | Presence bacterial overgrowth syndrome ([3]; after treatment (Day 56)) [%] | Presence bacterial overgrowth syndrome ([3]; before treatment) [%] | release Helicobacter pylori in the antrum (Helicobacter pylori; [6]) [%] | release Helicobacter pylori in the stomach (Helicobacter pylori; [6]) [%] | release Helicobacter pylori in the antrum (Helicobacter pylori; before treatment) [%] | release Helicobacter pylori in the stomach (Helicobacter pylori; before treatment) [%] | Quality of life no VAC ([4]; after treatment (56 days)) [MM] | Quality of life no VAC ([4]; before treatment) [MM] | further results
COc1ccc2nc([S@@+]([O-])Cc3ncc(C)c(OC)c3C)[nH]c2c1 [group X, esomeprazole] | 1.1 ± 0.2 | 1.3 ± 0.1 | 3.5 ± 0.9 | 3.6 ± 1.1 | 7.7 ± 3.1 | 7.2 ± 3.1 | 0 | 20 | 60 | 0 | 10 | 50 | 10 | 100 | 80 | 100 | 20 | 87.6 ± 21.2 | 58.1 ± 18.9 | 
Cc1c(OCC(F)(F)F)ccnc1C[S+]([O-])c1nc2ccccc2[nH]1 (stereo not shown) [group VIII, lansoprazole] | 1.1 ± 0.5 | 1.1 ± 0.2 | 3.4 ± 0.7 | 3.6 ± 1.1 | 7.8 ± 3.3 | 7.7 ± 3.2 | 0 | 20 | 60 | 0 | 10 | 50 | 10 | 100 | 70 | 100 | 20 | 84.2 ± 21.5 | 57.4 ± 17.5 | 
OC[C@H]1O[C@@H](O[C@@H]2[C@@H](CO)OC(O)(CO)[C@H]2O)[C@H](O)[C@@H](O)[C@H]1O (mixture of isomers) [lactulose] |  |  |  |  |  |  |  |  |  |  |  |  |  |  |  |  |  |  |  | number of Bifidobacteria and Lactobacillus (intestinal bacteria): significant increase; number of Clostridium perfringens, Bacteroides, Enterobacteriaceae, and Streptococcus (intestinal bacteria): decrease
COCCCOc1ccnc(C[S+]([O-])c2nc3ccccc3[nH]2)c1C (stereo not shown) [group IX, rabeprazole] | 1.2 ± 0.6 | 1.1 ± 0.3 | 3.6 ± 0.7 | 3.5 ± 1.1 | 7.8 ± 3.5 | 7.5 ± 3.4 | 0 | 20 | 50 | 0 | 20 | 40 | 10 | 100 | 80 | 100 | 20 | 87.3 ± 19.5 | 58.5 ± 20.2 | 
COc1ccnc(C[S+]([O-])c2nc3ccc(OC(F)F)cc3[nH]2)c1OC (stereo not shown) [group VII, pantoprazole] | 1.0 ± 0.4 | 1.2 ± 0.3 | 3.3 ± 0.5 | 3.4 ± 1.1 | 7.5 ± 3.1 | 7.6 ± 3.4 | 0 | 20 | 50 | 0 | 10 | 40 | 10 | 100 | 80 | 100 | 20 | 87.6 ± 21.2 | 58.1 ± 18.9 | 
COc1ccc2[nH]c([S+]([O-])Cc3ncc(C)c(OC)c3C)nc2c1 (stereo not shown) [group VI, omeprazole] | 1.2 ± 0.6 | 1.1 ± 0.3 | 3.6 ± 0.8 | 3.5 ± 1.2 | 7.8 ± 3.5 | 7.5 ± 3.4 | 0 | 20 | 60 | 0 | 20 | 50 | 10 | 100 | 70 | 100 | 20 | 87.6 ± 21.2 | 58.1 ± 18.9 | 
